Here are results for 43 molecules from the Deep4Chem optical property database.

This data set can be described thus: solvent given as SMILES.

The structures appear in SMILES notation.

In turn, `COc1ccc(/C=C/c2ccccc2)cc1` had an emission maximum (in C1CCCCC1) of 364 nm; an emission maximum (in CC#N) of 374 nm; an emission maximum (in CC(C)O) of 365 nm; an emission maximum (in CCCCOCCCC) of 367 nm; an emission maximum (in CCOC(C)=O) of 366 nm; an emission maximum (in CCOCC) of 366 nm.

In the case of `CCCCCCCCCCOC(=O)c1ccc2c3ccc(C(=O)OCCCCCCCCCC)c4c(C(=O)OCCCCCCCCCC)cc5[nH]c6cc(C(=O)OCCCCCCCCCC)c1c2c6c5c43`, the emission maximum (in C1CCOC1) is on record as 493 nm.

In the case of `CCC1=C(C)C(=O)n2c1cc1c(C)c(CCC(=O)O)c(C)n1c2=O`, the emission maximum is 535 nm (in CO), 510 nm (in CS(C)=O), 490 nm (in ClC(Cl)Cl) and 480 nm (in c1ccccc1).

With `CCCCOC(=O)c1cc(Oc2ccc(OC)cc2)c2c3c(Cl)cc4c5c(cc(Cl)c(c6c(Oc7ccc(OC)cc7)cc(C(=O)OCCCC)c1c26)c53)C(=O)N(c1c(C(C)C)cccc1C(C)C)C4=O`, the emission maximum (in Cc1ccccc1) was 599 nm.

In turn, `CCCCN1C(=O)c2ccc3c4ccc5c6c(cc(Br)c(c7ccc(c2c37)C1=O)c64)C(=O)N(CCCC)C5=O` had an emission maximum (in ClCCl) of 540 nm.

In the case of `COc1ccc(C#Cc2cc(C#Cc3ccc(OC)cc3)c(C#Cc3ccc(OC)cc3)c(C#Cc3ccc(OC)cc3)c2C#Cc2ccc(OC)cc2)cc1`, under “in ClCCl”, the emission maximum was 437 nm.

In the case of `CC(C)n1c2cc(O)c(F)cc2c(=O)c2cc(F)c(O)cc21`, the emission maximum (in CCO) is on record as 438 nm.

Regarding `CCCCCCCCCCCCNc1cccc2[n+]1[B-](F)(F)n1c(c3cccc4cccc1c43)=N2`, the emission maximum stood at 523 nm (in C1CCOC1); 519 nm (in CC#N); 509 nm (in CCCCCC); 529 nm (in Cc1ccccc1); 522 nm (in ClCCl).

Take `O=S(=O)([O-])c1ccccc1/C=C/c1ccc(-c2nnc(-c3ccc(/C=C/c4ccccc4S(=O)(=O)[O-])cc3)o2)cc1`: the emission maximum (in C1CCOC1) turned out to be 415 nm, the emission maximum (in CC(C)=O) came to 416 nm and the emission maximum (in CN(C)C=O) is recorded as 422 nm.

For the molecule `CC(C)(C)c1ccc2c(c1)c1cc(C(C)(C)C)ccc1n2-c1ccc(S(=O)(=O)c2ccc(-n3c4ccc(C(C)(C)C)cc4c4cc(C(C)(C)C)ccc43)cn2)nc1`, the emission maximum reads like this: (in Cc1ccccc1) 444.37 nm; (in O=P(c1ccccc1)(c1ccccc1)c1ccc2sc3cccc(P(=O)(c4ccccc4)c4ccccc4)c3c2c1) 444 nm.

The molecule `CCCCCCCCCCCCN1C(=O)c2c(c3ccc4cc(-c5ccc(C#N)cc5)c(OC)cc4c3c3c2ccc2cc(-c4ccc(C#N)cc4)c(OC)cc23)C1=O` yielded an emission maximum (in ClCCl) of 520 nm.

In the case of `Nc1ccc(N2C(=O)c3ccc4c5ccc6c7c(ccc(c8ccc(c3c48)C2=O)c75)C(=O)N(c2ccc(O)cc2)C6=O)cc1`, the emission maximum (in CN(C)C=O) is recorded as 537 nm.

In the case of `CC(=O)n1cc(/C=C/c2ccc([N+](=O)[O-])cc2)c2ccccc21`, the emission maximum runs as follows: (in CC#N) 428 nm; (in CCCCCCC) 408 nm; (in CO) 424 nm; (in O) 537 nm.

Consider `COc1cc2c(cc1OC)C1=C[C@H](c3ccc(Cl)cc3)C3(C(C#N)=C(C#N)N1CC2)c1cc(Cl)ccc1-c1ccc(Cl)cc13`, for which the emission maximum (in ClCCl) is reported as 406 nm.

As to `C[C@]12SC(=O)C=C1c1nc(-c3ccccc3)[nH]c1C1=CC(=O)S[C@@]12C`, the emission maximum (in CC#N) was found to be 513 nm.

Regarding `CCC1=C(C)C2=Cc3cc(I)cn3[B-](F)(F)[N+]2=C1C`, the emission maximum was 538.5 nm (in C1CCCCC1); 541 nm (in CC(C)=O); 543 nm (in CCO); 540.5 nm (in CCOC(C)=O); 542.5 nm (in CO); 540 nm (in OCC(F)(F)F).

Where the note is “in ClCCl”, `O=C1c2ccccc2-c2nc3ccccc3n21` came in with an emission maximum of 519 nm.

Turning to `C1=C(c2ccccc2)C=C(c2ccccc2)/C1=C/c1ccc2ccc3cccc4ccc1c2c34`, the emission maximum (in C1CCOC1) stood at 480 nm.

For the molecule `CCOC(=O)c1ccccc1-c1c2ccc(=[N+](CC)CC)cc-2oc2c1c(=O)oc1cc(N(CC)CC)ccc12`, the emission maximum reads like this: (in CCO) 642 nm; (in ClC(Cl)Cl) 640 nm; (in O) 652 nm.

In the case of `CCN1\C(=C/C=C/C=C/C2=[N+](CC)c3ccc4ccccc4c3C2(C)C)C(C)(C)c2c1ccc1ccccc21`, the emission maximum was 707 nm (in C1CCOC1); 695 nm (in CC#N); 698 nm (in CC(C)=O); 702 nm (in CCO); 702 nm (in CN(C)C=O); 698 nm (in CO). Also, the emission maximum reads like this: (in CS(C)=O) 705 nm; (in ClCCl) 710 nm.

As to `CC1=CC(C)=[N+]2C1=Cc1c3ccccc3c(-c3[nH]c(C)cc3C)n1[B-]2(F)F`, for the setting “in ClCCl”, the emission maximum is reported as 631 nm.

With `c1ccc(-c2c3ccccc3c(-c3cncnc3)c3ccccc23)cc1`, the emission maximum is, setting by setting: (in CCO) 441 nm; (in ClCCl) 414 nm.

Under “in C1CCOC1”, `Cc1ccc(C2=C3C=CC([Se]c4ccccc4)=[N+]3[B-](F)(F)n3c([Se]c4ccccc4)ccc32)cc1` returned an emission maximum of 609 nm.

On to `CC1(C)CC(/N=C/c2ccc3ccc4cccc5ccc2c3c45)CC(C)(C)N1[O]`, for which the emission maximum reads like this: (in C1CCCCC1) 385 nm; (in CC#N) 375 nm; (in CO) 400 nm; (in ClC(Cl)Cl) 375 nm.

The molecule `CCOC(=O)/C(C#N)=C\c1ccc2c(c1)c1ccccc1n2-c1ccc(C)cc1` returned an emission maximum (in C1CCOC1) of 461 nm; an emission maximum (in CC#N) of 508 nm; an emission maximum (in CC(C)=O) of 503 nm; an emission maximum (in CCOC(C)=O) of 460 nm; an emission maximum (in CO) of 495 nm; an emission maximum (in CS(C)=O) of 503 nm. In addition, the emission maximum runs as follows: (in Cc1ccccc1) 444 nm; (in ClC(Cl)Cl) 482 nm.

As to `Cc1ccc(-c2ccc(/C=C/c3ccccc3)cn2)nc1`, the emission maximum (in CC#N) is given as 392 nm.

Turning to `N#C/C(=N/Nc1ccc(C#N)cc1)c1nc(-c2ccccc2)cs1`, the emission maximum came out at 486 nm (in CCO), 490 nm (in Cc1ccccc1) and 492 nm (in ClCCl).

With `N#Cc1ccc(-c2cc(-c3ccc(N4CCCC4)cc3)nc(-c3ccccc3)n2)cc1`, the emission maximum (in ClC(Cl)Cl) came out at 518 nm.

In the case of `c1ccc2c(c1)Cc1cc3c(cc1-2)Cc1ccccc1-3`, the emission maximum runs as follows: (in C1CCCCC1) 340 nm; (in ClCCl) 356 nm.

On to `CCn1c2ccccc2c2c(C#N)c3c(ccc4c3cnn4C)nc21`, for which the emission maximum (in CCOC(C)=O) was determined as 476 nm.

In the case of `CCCCCCOc1ccc(C#Cc2ccc(C#Cc3ccc(OCCCCCC)c(OCCCCCC)c3)c3nsnc23)cc1OCCCCCC`, the emission maximum runs as follows: (in C1CCCCC1) 504 nm; (in CCOC(C)=O) 550 nm; (in CN(C)C=O) 600 nm; (in COc1ccccc1) 561 nm; (in Cc1ccccc1) 537 nm; (in ClC(Cl)Cl) 580 nm. Besides, the emission maximum reads like this: (in ClCCCl) 581 nm; (in ClCCl) 577 nm.

In the case of `CC(C)(C)c1cc2c3cc(C(C)(C)C)c(-c4cc5cc6c7cccc8cccc(c9cc(C(C)(C)C)cc(c5cc4C(C)(C)C)c96)c87)cc3cc3c4cccc5cccc(c(c1)c23)c54`, the emission maximum (in CC1CCCCC1) is recorded as 454 nm.

In turn, `N#CC(C#N)=Cc1ccc2nc(C#Cc3ccc(N(c4ccccc4)c4ccccc4)cc3)sc2c1` had an emission maximum (in Cc1ccccc1) of 535 nm.

For the setting “in C1CCOC1”, `CCCCCCCCCn1c(-c2cc(-c3nc4ccc(C)cc4n3CCCCCCCCC)cc(-c3nc4ccc(C)cc4n3CCCCCCCCC)c2)nc2ccc(C)cc21` showed an emission maximum of 371 nm.

Take `c1ccc(N(c2ccccc2)c2ccc(-c3ccc4c(c3)C3(c5cc(-c6ccc(N(c7ccccc7)c7ccccc7)cc6)ccc5S4)c4ccccc4-c4ccccc43)cc2)cc1`: the emission maximum by setting is: (in CC(C)=O) 414.99 nm; (in CCCCCC) 392.96 nm; (in CN(C)C=O) 421.13 nm; (in Cc1ccccc1) 398.74 nm; (in ClCCl) 410 nm.

`CC(C)c1cc(C(C)C)c(B2c3cc(N4c5ccccc5C(C)(C)c5ccccc54)ccc3N(c3ccccc3)c3ccc(N4c5ccccc5C(C)(C)c5ccccc54)cc32)c(C(C)C)c1`: the emission maximum by setting is: (in C1CCOC1) 485.71 nm; (in CCOC(C)=O) 481.97 nm; (in Cc1ccccc1) 469.39 nm; (in ClCCl) 494.56 nm; (in c1cc(-c2cccc(-n3c4ccccc4c4ccccc43)c2)cc(-n2c3ccccc3c3ccccc32)c1) 469 nm.

`CC(C)(C)C1Nc2ccccc2C(=O)N1c1ccccc1` (centres undefined): the emission maximum runs as follows: (in CC#N) 417 nm; (in CCCCCCCCCCCCCCCC) 388 nm; (in CO) 449 nm; (in ClC(Cl)Cl) 409 nm; (in c1ccccc1) 400 nm.

Take `Cc1ccc2cc3c(=O)n(C)c(=O)n(C)c3nc2c1`: the emission maximum is given as 405 nm (in CC#N); 408 nm (in CC(C)O); 409 nm (in CCO); 409 nm (in CO); 406 nm (in ClC(Cl)Cl); 405 nm (in ClCCl).

For the setting “in C1CCCCC1”, `CCCC1(CCC)c2cc(-c3ccc(-c4ccc(OC)cc4)o3)ccc2-c2ccc(-c3ccc(-c4ccc(OC)cc4)o3)cc21` returned an emission maximum of 425 nm.

Consider `c1ccc(CO[Si]23n4c5c6ccccc6c4/N=C4N=C(/N=c6/c7ccccc7c(n62)=c2c6ccccc6c(n23)=N5)c2ccccc2\4)cc1` (centres undefined), for which the emission maximum (in CN(C)C=O) is given as 671 nm.

Molecule `O=C(/C=C(\O)c1ccc(N2c3ccccc3Oc3ccccc32)cc1)c1ccc(N2c3ccccc3Oc3ccccc32)cc1` registered an emission maximum (in Cc1ccccc1) of 594 nm and an emission maximum (in c1ccc2c(c1)c1ccccc1n2-c1ccc(-c2ccc(-n3c4ccccc4c4ccccc43)cc2)cc1) of 550.32 nm.

For the molecule `N#Cc1cccc2ccccc12`, the emission maximum (in Cc1ccccc1) is 341.02 nm.

For the molecule `CCOC(=O)c1ccc(/C=C/C2=[N+]3C(=C(c4ccccc4)c4ccc(/C=C/c5ccc(C(=O)OCC)o5)n4[B-]3(F)F)C=C2)o1`, the emission maximum (in ClC(Cl)Cl) worked out at 681 nm.
